In patent US20100183530A1, “Cosmetic compositions comprising 4-carboxy-2-pyrrolidinone esters and triazine lipophilic UV-screening agents” (L'OREAL, priority 2008, published 2010):

Assay: Solubility of lipophilic triazine screening agents in oils (prior art solvents and solvents of the invention)
Format: physicochemical
Details: weight/weight, solution left at laboratory temperature for 1 month, no crystal or oily deposit
[1] = oil: Caprylic/capric acid triglycerides
[2] = oil: Compound (m) of the invention
[3] = oil: Isopropyl N-lauroylsarcosinate

| Compound | solubility of the screening agent in the oil (oil: C12-C15 alkyl benzoate) [%] | solubility of the screening agent in the oil [1] [%] | solubility of the screening agent in the oil [2] | solubility of the screening agent in the oil [3] | solubility of the screening agent in the oil (oil: 2-Phenylethyl benzoate) [%] | solubility of the screening agent in the oil (oil: Compound (I) of the invention) [% gel] | solubility of the screening agent in the oil (oil: Compound (ii) of the invention) [% gel] | solubility of the screening agent in the oil (oil: Compound (j) of the invention) [% gel] | solubility of the screening agent in the oil (oil: Compound (v) of the invention) [%] |
| --- | --- | --- | --- | --- | --- | --- | --- | --- | --- |
| 2,4-bis(isobutyl 4′-aminobenzalmalonate)-6-[(3-{1,3,3,3-tetramethyl-1-[(trimethylsilyl)oxy]disiloxanyl}propyl)amino]-1,3,5-triazine [Screening agent 2] | 8 | 6 | 60% gel | 35% | – | – | – | – | – |
| CC(C)(C)COC(=O)C(=Cc1ccc(Nc2nc(Nc3ccc(C=C(C(=O)OCC(C)(C)C)C(=O)OCC(C)(C)C)cc3)nc(Nc3ccc(C=C(C(=O)OCC(C)(C)C)C(=O)OCC(C)(C)C)cc3)n2)cc1)C(=O)OCC(C)(C)C [Screening agent 1, Dineopentyl 2-[4-({4,6-bis[(4-{3-(neopentyloxy)-2-[(neopentyloxy)carbonyl]-3-oxoprop-1-enyl}phenyl)amino]-1,3,5-triazin-2-yl}amino)benzylidene]malonate] | – | – | 60% gel | 40% gel | – | – | – | – | – |
| CCCCOC(=O)c1ccc(Nc2nc(Nc3ccc(C=C(C(=O)OCC(C)(C)C)C(=O)OCC(C)(C)C)cc3)nc(Nc3ccc(C=C(C(=O)OCC(C)(C)C)C(=O)OCC(C)(C)C)cc3)n2)cc1 [Screening agent 3, Dineopentyl 2-[4-({4-{[4-(butoxycarbonyl)phenyl]amino}-6-[(4-{3-(neopentyloxy)-2-[(neopentyloxy)carbonyl]-3-oxoprop-1-enyl}phenyl)amino]-1,3,5-triazin-2-yl}amino)benzylidene]malonate] | – | – | 60% gel | 40% gel | – | – | – | – | – |
| CC(C)(C)COC(=O)C(=Cc1ccc(Nc2nc(Nc3ccc(C=C(C(=O)OCC(C)(C)C)C(=O)OCC(C)(C)C)cc3)nc(Nc3ccc(C(=O)NC(C)(C)C)cc3)n2)cc1)C(=O)OCC(C)(C)C [Screening agent 4, Dineopentyl 2-[4-({4-({4-[(tert-butylamino)carbonyl]phenyl}amino)-6-[(4-{3-(neopentyloxy)-2-[(neopentyloxy)carbonyl]-3-oxoprop-1-enyl}phenyl)amino]-1,3,5-triazin-2-yl}amino)benzylidene]malonate] | – | – | 60% gel | 40% gel | – | – | – | – | – |
| CC(C)(C)CC(C)(C)NC(=O)c1ccc(Nc2nc(NCCC[Si](C)(O[Si](C)(C)C)O[Si](C)(C)C)nc(Nc3ccc(C(=O)NC(C)(C)CC(C)(C)C)cc3)n2)cc1 [Screening agent 5, N-(1,1,3,3-tetramethylbutyl)-4-({4-[(4-{[(1,1,3,3-tetramethylbutyl)amino]carbonyl}phenyl)amino]-6-[(3-{1,3,3,3-tetramethyl-1-[(trimethylsilyl)oxy]disiloxanyl}propyl)amino]-1,3,5-triazin-2-yl}amino)benzamide] | – | – | 60% gel | 40% gel | – | – | – | – | – |
| CCCCOC(=O)c1ccc(Nc2nc(NCCC[Si](C)(O[Si](C)(C)C)O[Si](C)(C)C)nc(Nc3ccc(C(=O)OCCCC)cc3)n2)cc1 [Screening agent 8, Butyl 4-({4-{[4-(butoxycarbonyl)phenyl]amino}-6-[(3-{1,3,3,3-tetramethyl-1-[(trimethylsilyl)oxy]disiloxanyl}propyl)amino]-1,3,5-triazin-2-yl}amino)benzoate] | 28 | 31 | 60% gel | 40% gel | 27 | 60 | 60 | 60 | – |
| CCCCC(CC)COc1ccc(-c2nc(-c3ccc(OC)cc3)nc(-c3ccc(OCC(CC)CCCC)cc3O)n2)c(O)c1 (centres unmarked) [Screening agent 10, 5-[(2-Ethylhexyl)oxy]-2-[4-{4-[(2-ethylhexyl)oxy]-2-hydroxyphenyl}-6-(4-methoxyphenyl)-1,3,5-triazin-2-yl]phenol] | – | – | 18% | 10% | – | – | – | – | 20 |
